Data published in PMC10178848, “Modulating fast skeletal muscle contraction protects skeletal muscle in animal models of Duchenne muscular dystrophy” (The Journal of Clinical Investigation, 2023).

Test system: GRMD plasma proteins
Format: in vivo, dog
Details: Post-Treatment to GRMD baseline; Increased in GRMD

## O=c1ccc(-c2cnc(OCC(F)(F)F)nc2)nn1Cc1cncc(F)c1 [EDG-5506]
  Change from GRMD Baseline (fraction): Fructose-bisphosphate aldolase A (ALDOA): -0.0462 fraction
  Change from GRMD Baseline (fraction): G2/mitotic-specific cyclin-B1 (CCNB1): 0.0445 fraction
  Change from GRMD Baseline (fraction): Galectin-4 (LGALS4): -0.0246 fraction
  Change from GRMD Baseline (fraction): Galectin-7 (LGALS7): 0.0215 fraction
  Change from GRMD Baseline (fraction): Glucose-6-phosphate isomerase (GPI): -0.1195 fraction
  Change from GRMD Baseline (fraction): Glyceraldehyde-3-phosphate dehydrogenase (GAPDH): 0.1936 fraction
  Change from GRMD Baseline (fraction): Glycogen synthase kinase-3 alpha/beta (GSK3A GSK3B): -0.1722 fraction
  Change from GRMD Baseline (fraction): Granulocyte-macrophage colony-stimulating factor (CSF2): -0.1154 fraction
  Change from GRMD Baseline (fraction): Growth factor receptor-bound protein 2 (GRB2): -0.2826 fraction
  Change from GRMD Baseline (fraction): Growth/differentiation factor 5 (GDF5): -0.0828 fraction
  Change from GRMD Baseline (fraction): Heat shock 70 kDa protein 1A (HSPA1A): -0.1812 fraction
  Change from GRMD Baseline (fraction): Heat shock cognate 71 kDa protein (HSPA8): -0.1958 fraction
  Change from GRMD Baseline (fraction): Heat shock protein HSP 90-alpha/beta (HSP90AA1 HSP90AB1): -0.0775 fraction
  Change from GRMD Baseline (fraction): Heat shock protein HSP 90-beta (HSP90AB1): -0.0807 fraction
  Change from GRMD Baseline (fraction): Heat shock protein beta-1 (HSPB1): -0.0394 fraction
  Change from GRMD Baseline (fraction): Hepatoma-derived growth factor-related protein 2 (HDGFRP2): 0.011 fraction
  Change from GRMD Baseline (fraction): Heterogeneous nuclear ribonucleoprotein A/B (HNRNPAB): -0.0915 fraction
  Change from GRMD Baseline (fraction): Heterogeneous nuclear ribonucleoprotein Q (SYNCRIP): -0.0651 fraction
  Change from GRMD Baseline (fraction): Heterogeneous nuclear ribonucleoproteins A2/B1 (HNRNPA2B1): -0.1176 fraction
  Change from GRMD Baseline (fraction): Hexokinase-2 (HK2): 0.0338 fraction
  Change from GRMD Baseline (fraction): Histidine triad nucleotide-binding protein 1 (HINT1): -0.0574 fraction
  Change from GRMD Baseline (fraction): Histone H1.2 (HIST1H1C): -0.0242 fraction
  Change from GRMD Baseline (fraction): Histone deacetylase 8 (HDAC8): 0.0429 fraction
  Change from GRMD Baseline (fraction): Homeodomain-interacting protein kinase 3 (HIPK3): 0.4997 fraction
  Change from GRMD Baseline (fraction): Immunoglobulin superfamily containing leucine-rich repeat protein 2 (ISLR2): -0.0595 fraction
  Change from GRMD Baseline (fraction): Inducible T-cell costimulator (ICOS): -0.0476 fraction
  Change from GRMD Baseline (fraction): Inosine-5'-monophosphate dehydrogenase 2 (IMPDH2): -0.0129 fraction
  Change from GRMD Baseline (fraction): Insulin-degrading enzyme (IDE): -0.2863 fraction
  Change from GRMD Baseline (fraction): Insulin-like growth factor-binding protein 3 (IGFBP3): 0.0105 fraction
  Change from GRMD Baseline (fraction): Intercellular adhesion molecule 5 (ICAM5): -0.1345 fraction
  Change from GRMD Baseline (fraction): Interferon alpha-10 (IFNA10): -0.0472 fraction
  Change from GRMD Baseline (fraction): Interleukin-1 alpha (IL1A): -0.0188 fraction
  Change from GRMD Baseline (fraction): Interleukin-1 receptor-like 2 (IL1RL2): 0.0618 fraction
  Change from GRMD Baseline (fraction): Interleukin-15 receptor subunit alpha (IL15RA): -0.0392 fraction
  Change from GRMD Baseline (fraction): Interleukin-17F (IL17F): -0.0474 fraction
  Change from GRMD Baseline (fraction): Interleukin-37 (IL37): -0.0158 fraction
  Change from GRMD Baseline (fraction): Junctional adhesion molecule B (JAM2): -0.0421 fraction
  Change from GRMD Baseline (fraction): Junctional adhesion molecule C (JAM3): 0.0569 fraction
  Change from GRMD Baseline (fraction): Kallikrein-6 (KLK6): -0.032 fraction
  Change from GRMD Baseline (fraction): Kallikrein-12 (KLK12): 0.0927 fraction
  Change from GRMD Baseline (fraction): Kallikrein-14 (KLK14): 0.0054 fraction
  Change from GRMD Baseline (fraction): Kin of IRRE-like protein 3 (KIRREL3): 0.0811 fraction
  Change from GRMD Baseline (fraction): Kremen protein 2 (KREMEN2): -0.0135 fraction
  Change from GRMD Baseline (fraction): Kynureninase (KYNU): 0.1449 fraction
  Change from GRMD Baseline (fraction): L-Selectin (SELL): -0.0484 fraction
  Change from GRMD Baseline (fraction): L-lactate dehydrogenase B chain (LDHB): -0.1273 fraction
  Change from GRMD Baseline (fraction): Leucine-rich repeat serine/threonine-protein kinase 2 (LRRK2): -0.023 fraction
  Change from GRMD Baseline (fraction): Leucine-rich repeat transmembrane protein FLRT1 (FLRT1): 0.162 fraction
  Change from GRMD Baseline (fraction): Low affinity immunoglobulin epsilon Fc receptor (FCER2): -0.0106 fraction
  Change from GRMD Baseline (fraction): MAP kinase-activated protein kinase 2 (MAPKAPK2): -0.1017 fraction
  Change from GRMD Baseline (fraction): MAP kinase-activated protein kinase 3 (MAPKAPK3): -0.0643 fraction
  Change from GRMD Baseline (fraction): Macrophage scavenger receptor types I and II (MSR1): 0.4558 fraction
  Change from GRMD Baseline (fraction): Malate dehydrogenase, cytoplasmic (MDH1): -0.0153 fraction
  Change from GRMD Baseline (fraction): Methionine aminopeptidase 2 (METAP2): -0.0243 fraction
  Change from GRMD Baseline (fraction): Microtubule-associated protein tau (MAPT): -0.0598 fraction
  Change from GRMD Baseline (fraction): Mitogen-activated protein kinase 3 (MAPK3): -0.1158 fraction
  Change from GRMD Baseline (fraction): Mitogen-activated protein kinase 8 (MAPK8): -0.1634 fraction
  Change from GRMD Baseline (fraction): Mitogen-activated protein kinase 12 (MAPK12): -0.2043 fraction
  Change from GRMD Baseline (fraction): Mitogen-activated protein kinase 14 (MAPK14): -0.1229 fraction
  Change from GRMD Baseline (fraction): Mothers against decapentaplegic homolog 3 (SMAD3): -0.0623 fraction
  Change from GRMD Baseline (fraction): Myeloblastin (PRTN3): -0.0133 fraction
  Change from GRMD Baseline (fraction): Myoglobin (MB): -0.1998 fraction
  Change from GRMD Baseline (fraction): Myosin-binding protein C, slow-type (MYBPC1): -0.0674 fraction
  Change from GRMD Baseline (fraction): NKG2D ligand 2 (ULBP2): 0.031 fraction
  Change from GRMD Baseline (fraction): NSFL1 cofactor p47 (NSFL1C): -0.264 fraction
  Change from GRMD Baseline (fraction): Natural cytotoxicity triggering receptor 3 (NCR3): -0.0108 fraction
  Change from GRMD Baseline (fraction): Neuronal cell adhesion molecule (NRCAM): -0.0939 fraction
  Change from GRMD Baseline (fraction): Neutral ceramidase (ASAH2): -0.0127 fraction
  Change from GRMD Baseline (fraction): Nucleoside diphosphate kinase A (NME1): -0.1372 fraction
  Change from GRMD Baseline (fraction): OCIA domain-containing protein 1 (OCIAD1): -0.0044 fraction
  Change from GRMD Baseline (fraction): Oncostatin-M (OSM): 0.019 fraction
  Change from GRMD Baseline (fraction): Opioid-binding protein/cell adhesion molecule (OPCML): -0.0002 fraction
  Change from GRMD Baseline (fraction): PIK3CA/PIK3R1 (PIK3CA PIK3R1): -0.229 fraction
  Change from GRMD Baseline (fraction): Parathyroid hormone-related protein (PTHLH): -0.097 fraction
  Change from GRMD Baseline (fraction): Peptidyl-prolyl cis-trans isomerase E (PPIE): -0.0771 fraction
  Change from GRMD Baseline (fraction): Peroxiredoxin-1 (PRDX1): -0.0908 fraction
  Change from GRMD Baseline (fraction): Peroxiredoxin-6 (PRDX6): -0.0459 fraction
  Change from GRMD Baseline (fraction): Phosphatidylethanolamine-binding protein 1 (PEBP1): 0.0739 fraction
  Change from GRMD Baseline (fraction): Phosphoglucomutase-1 (PGM1): 0.1179 fraction
  Change from GRMD Baseline (fraction): Phosphoglycerate mutase 1 (PGAM1): -0.9265 fraction
  Change from GRMD Baseline (fraction): Plasma serine protease inhibitor (SERPINA5): -0.0121 fraction
  Change from GRMD Baseline (fraction): Platelet glycoprotein 4 (CD36): 0.0288 fraction
  Change from GRMD Baseline (fraction): Platelet-activating factor acetylhydrolase (PLA2G7): 0.0256 fraction
  Change from GRMD Baseline (fraction): Platelet-derived growth factor receptor alpha (PDGFRA): -0.0004 fraction
  Change from GRMD Baseline (fraction): Proliferating cell nuclear antigen (PCNA): -0.0276 fraction
  Change from GRMD Baseline (fraction): Protein NOV homolog (NOV): -0.0669 fraction
  Change from GRMD Baseline (fraction): Protein S100-A12 (S100A12): -0.009 fraction
  Change from GRMD Baseline (fraction): RAC-alpha/beta/gamma serine/threonine-protein kinase (AKT1 AKT2 AKT3): -0.2013 fraction
  Change from GRMD Baseline (fraction): RAC-beta serine/threonine-protein kinase (AKT2): -0.1736 fraction
  Change from GRMD Baseline (fraction): Rab GDP dissociation inhibitor beta (GDI2): -0.0642 fraction
  Change from GRMD Baseline (fraction): Receptor tyrosine-protein kinase erbB-3 (ERBB3): -0.022 fraction
  Change from GRMD Baseline (fraction): Receptor-type tyrosine-protein kinase FLT3 (FLT3): -0.0737 fraction
  Change from GRMD Baseline (fraction): Renin (REN): -0.032 fraction
  Change from GRMD Baseline (fraction): Retinoblastoma-associated protein (RB1): 0.235 fraction
  Change from GRMD Baseline (fraction): S-formylglutathione hydrolase (ESD): 0.0004 fraction
  Change from GRMD Baseline (fraction): Serine/threonine-protein kinase 17B (STK17B): 0.0071 fraction
  Change from GRMD Baseline (fraction): Serine/threonine-protein kinase Chk2 (CHEK2): 0.4343 fraction
  Change from GRMD Baseline (fraction): Serine/threonine-protein kinase WNK3 (WNK3): -0.2205 fraction
  Change from GRMD Baseline (fraction): Serine/threonine-protein kinase receptor R3 (ACVRL1): -0.0651 fraction
  Change from GRMD Baseline (fraction): Small nuclear ribonucleoprotein F (SNRPF): -0.0033 fraction
  Change from GRMD Baseline (fraction): Somatostatin-28 (SST): -0.0229 fraction
  Change from GRMD Baseline (fraction): T-lymphocyte activation antigen CD80 (CD80): 0.0022 fraction
  Change from GRMD Baseline (fraction): Thymic stromal lymphopoietin (TSLP): -0.034 fraction
  Change from GRMD Baseline (fraction): Thyroid peroxidase (TPO): -0.0311 fraction
  Change from GRMD Baseline (fraction): Tissue factor pathway inhibitor (TFPI): 0.029 fraction
  Change from GRMD Baseline (fraction): Transcription factor AP-1 (JUN): 0.0325 fraction
  Change from GRMD Baseline (fraction): Transketolase (TKT): -0.16 fraction
  Change from GRMD Baseline (fraction): Translationally-controlled tumor protein (TPT1): -0.0704 fraction
  Change from GRMD Baseline (fraction): Triosephosphate isomerase (TPI1): -0.2239 fraction
  Change from GRMD Baseline (fraction): Tropomyosin beta chain (TPM2): 0.0295 fraction
  Change from GRMD Baseline (fraction): Troponin I, cardiac muscle (TNNI3): 0.0415 fraction
  Change from GRMD Baseline (fraction): Troponin I, fast skeletal muscle (TNNI2): -0.0403 fraction
  Change from GRMD Baseline (fraction): Troponin T, cardiac muscle (TNNT2): -0.0244 fraction
  Change from GRMD Baseline (fraction): Tumor necrosis factor ligand superfamily member 11 (TNFSF11): 0.0726 fraction
  Change from GRMD Baseline (fraction): Tumor necrosis factor receptor superfamily member 1B (TNFRSF1B): -0.0355 fraction
  Change from GRMD Baseline (fraction): Tumor necrosis factor receptor superfamily member 3 (LTBR): -0.0213 fraction
  Change from GRMD Baseline (fraction): Tyrosine-protein kinase Yes (YES1): -0.136 fraction
  Change from GRMD Baseline (fraction): Tyrosine-protein kinase ZAP-70 (ZAP70): 0.0305 fraction
  Change from GRMD Baseline (fraction): Tyrosine-protein phosphatase non-receptor type 1 (PTPN1): -0.0601 fraction
